Results published in ChEMBL document CHEMBL6083204, “Synthesis of a celastrol derivative as a cancer stem cell inhibitor through regulation of the STAT3 pathway for treatment of ovarian cancer” (RSC Med Chem, 2024).
pIC50: −log10 of the molar value.

Key:
A2780 = test: Antiproliferative activity against human A2780 cells assessed as inhibition of cell growth incubated for 72 hrs by MTT assay; assay type: functional, cell-based; settings: A2780, 72 h
[1] = Cytotoxicity against human IOSE80 cells assessed as inhibition of cell growth incubated for 72 hrs by MTT assay; assay type: toxicity, cell-based
[2] = Selectivity index, ratio of IC50 for cytotoxicity against human IOSE80 cells to IC50 for cytotoxicity against human SK-OV-3 cells
OVCAR-3 = test: Antiproliferative activity against human OVCAR-3 cells assessed as inhibition of cell growth incubated for 72 hrs by MTT assay; assay type: functional, cell-based; settings: OVCAR-3, 72 h
SK-OV-3 = test: Antiproliferative activity against human SK-OV-3 cells assessed as inhibition of cell growth incubated for 72 hrs by MTT assay; assay type: functional, cell-based; settings: SK-OV-3, 72 h

Structure (SMILES)	pIC50 (A2780)	IC50 at 72 h [1]	Ratio IC50 [2]	pIC50 (OVCAR-3)	pIC50 (SK-OV-3)
CC1=C(O)C(=O)C=C2C1=CC=C1[C@@]2(C)CC[C@@]2(C)[C@@H]3C[C@](C)(C(=O)O)CC[C@]3(C)CC[C@]12C [CELASTROL]	5.70	2380 nM	1.87	6.08	5.90
COc1cccc2c1C(=O)c1c(O)c3c(c(O)c1C2=O)C[C@@](O)(C(=O)CO)C[C@@H]3O[C@H]1C[C@H](N)[C@H](O)[C@H](C)O1 [DOXORUBICIN]	5.38	760 nM	–	–	5.77
